According to patent publication US20200172483A1, “HETEROCYCLIC SMALL MOLECULE MODULATORS OF HUMAN STING” (Curadev Pharma Limited, priority 2017, published 2020):

Columns and labels:
[1] = target: T1, WT/R232 STING protein (Homo sapiens, UniProt Q86WV6, H232R); assay: Luciferase reporter assay in HEK293T-hSTING-Luciferase cells (R232); assay type: cell-based; conditions: 20 hr stimulation, EC50 range
T1 construct: host or cells: HEK293T
Method in brief: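 Clonal HEK293T cells stably expressing human STING R232 plus an ISRE/ISG54-driven secreted luciferase reporter, stimulated with compounds for 20 hr. Luciferase in supernatant read by luminescence; activity given as fold-induction over baseline.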

[2] = target: T2, hSTING (H232) (Homo sapiens, UniProt Q86WV6); assay: Luciferase reporter assay in HEK293T-hSTING-Luciferase cells (H232/REF polymorph); assay type: cell-based; conditions: EC50 range
T2 construct: host or cells: HEK293T
Excerpt: (§1) • a) Stable STING expressing cells—Stable HEK293T STING-expressing cell lines were generated using plasmids purchased from Invivogen, CA, USA, that contain STING cDNA cloned into the pUNO-1 vector under hEF1-HTLV promoter and containing the Blasticidin selection cassette. The plasmids hSTING (R232), hSTING (H232), hSTING (HAQ) were directly procured from Invivogen while hSTING (AQ) and hSTING (Q) were derived from hSTING (HAQ) and hSTING (R232) plasmids respectively by using a PCR based site directed mutagenesis method. These vectors were individually transfected into HEK293T cells using Lipofectamine (Invitrogen) and transfected cells were selected under Blasticidin selection. These transfected cells were further subjected to clonal selection using the limiting dilution method to obtain clonally pure populations of HEK cells transfected with each of the above mentioned human STING variants. Only those clones were selected in which ligand independent activation of STING was minimal. • b) Stable Luciferase reporter gene expressing cells—Stable HEK293T Luciferase reporter gene expressing cell lines were generated using pCDNA4 plasmids under an IRF-inducible promoter. This promoter is comprised of five tandem interferon-stimulated response elements (ISRE) fused to an ISG54 minimal promoter. This vector was transfected into HEK293T cells using Lipofectamine (Invitrogen) and transfected cells were selected under Zeocin selection. These transfected cells were further subjected to clonal selection using the limiting dilution method to obtain clonally pure populations of HEK cells transfected the Luciferase reporter construct. Only those clones were selected in which ligand independent induction of luciferase was minimal.
(§2) 5×10^5 clonally selected HEK293T-hSTING-Luciferase cells were seeded in 384-well plates in growth medium and stimulated with novel compounds. After 20 hr of stimulation supernatant were removed and secretary reporter gene activity were measured using the Quanti-Luc detection system (Invivogen) on a Spectramax i3X luminometer.
(§3) The 5 major polymorphisms of human STING are shown in FIG. 1, with their prevalence in human populations indicated.

[3] = target: T3, hSTING (HAQ) (Homo sapiens, UniProt Q86WV6, G230A/H232R/R293Q/R71H); assay: Luciferase reporter assay in HEK293T-hSTING-Luciferase cells (HAQ polymorph); assay type: cell-based; conditions: EC50 range
T3 construct: host or cells: HEK293T
Excerpt: as §1, §2, §3

[4] = test system: IRF pathway; assay: Reporter gene expression assay for IRF axis in THP1-Dual cells (secreted Lucia luciferase); assay type: cell-based, human; conditions: Homo sapiens, THP1-Dual, 20 h, 20 hr stimulation, QUANTI-Luc, EC50 range, read-out: THP-IRF activity
Description: (§4) THP1-Dual™ cells (Invivogen) were derived from the human THP-1 monocyte cell line by stable integration of two inducible reporter constructs. As a result, THP1-Dual™ cells allow the simultaneous study of the NF-κB pathway, by monitoring the activity of secreted SEAP, and the IRF pathway, by assessing the activity of a secreted luciferase (Lucia). […] THP1-Dual™ cells were seeded in 384-well plates in growth medium and stimulated with novel compounds. After 20 hr of stimulation supernatant were removed and reporter proteins were readily measured in the cell culture supernatant using QUANTI-Blue™ (Invivogen), a SEAP detection reagent, and QUANTI-Luc™ (Invivogen), a luciferase detection reagent on a Spectramax i3X luminometer. EC50 value ranges for exemplary compounds tested in the above assay are given.

[5] = test system: NF-κB pathway; assay: Reporter gene expression assay for NFκB axis in THP1-Dual cells (secreted SEAP); assay type: cell-based, human; conditions: Homo sapiens, THP1-Dual, 20 h, 20 hr stimulation, QUANTI-Blue SEAP, EC50 range, read-out: THP-NFKB activity
Description: as §4

T3 sequence (Q86WV6 whole entry R71H/G230A/H232R/R293Q): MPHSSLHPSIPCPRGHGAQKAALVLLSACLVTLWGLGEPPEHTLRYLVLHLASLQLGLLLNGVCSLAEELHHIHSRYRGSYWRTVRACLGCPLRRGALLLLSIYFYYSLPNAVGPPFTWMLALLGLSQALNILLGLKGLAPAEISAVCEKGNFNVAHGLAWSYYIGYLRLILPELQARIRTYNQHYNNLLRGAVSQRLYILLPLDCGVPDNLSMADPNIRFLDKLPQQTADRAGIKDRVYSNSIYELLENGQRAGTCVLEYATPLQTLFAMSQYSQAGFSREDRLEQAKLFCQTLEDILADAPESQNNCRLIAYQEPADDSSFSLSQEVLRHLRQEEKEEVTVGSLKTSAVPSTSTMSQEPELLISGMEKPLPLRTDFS
T2 sequence (Q86WV6 whole entry): as the sequence (Q86WV6 whole entry R71H/G230A/H232R/R293Q) above, with H71R, A230G, R232H, Q293R counted along it
T1 sequence (Q86WV6 whole entry H232R): as the sequence (Q86WV6 whole entry R71H/G230A/H232R/R293Q) above, with H71R, A230G, Q293R counted along it

Row | SMILES | EC50 [1] | EC50 [2] | EC50 [3] | EC50 [4] | EC50 [5]
1 | CC1(C)C(=O)N(Cc2c(F)cccc2Cl)c2cc(C(=O)NCc3nc4ccccc4o3)ccc21 [Example 30, N-(benzo[d]oxazol-2-ylmethyl)-1-(2-chloro-6-fluorobenzyl)-3,3-dimethyl-2-oxoindoline-6-carboxamide] | 1000 to 10000 nM | 1000 to 10000 nM | 1000 to 10000 nM | > 10000 nM | 1000 to 10000 nM
2 | CC1(C)C(=O)N(Cc2cc(F)cc(F)c2)c2cc(C(=O)NCc3ccc(N=[N+]=[N-])cc3)ccc21 [Example 48, N-(4-azidobenzyl)-1-(3,5-difluorobenzyl)-3,3-dimethyl-2-oxoindoline-6-carboxamide] | 1000 to 10000 nM | 1000 to 10000 nM | 1000 to 10000 nM | > 10000 nM | > 10000 nM
3 | CC1(C)C(=O)N(Cc2c(F)cccc2Cl)c2cc(C(=O)NCc3ccc4occc4c3)ccc21 [Example 71, N-(benzofuran-5-ylmethyl)-1-(2-chloro-6-fluorobenzyl)-3,3-dimethyl-2-oxoindoline-6-carboxamide] | 1000 to 10000 nM | 1000 to 10000 nM | 1000 to 10000 nM | > 10000 nM | 1000 to 10000 nM
4 | CC1(C)C(=O)N(Cc2c(F)cccc2Cl)c2cc(C(=O)NCc3c(F)cc(F)cc3F)ccc21 [Example 2, 1-(2-chloro-6-fluorobenzyl)-3,3-dimethyl-2-oxo-N-(2,4,6-trifluorobenzyl)indoline-6-carboxamide] | ≤ 1000 nM | ≤ 1000 nM | ≤ 1000 nM | 1000 to 10000 nM | 1000 to 10000 nM
5 | CC1(C)C(=O)N(Cc2c(F)cccc2Cl)c2cc(C(=O)NCc3c(F)cccc3F)ccc21 [Example 27, 1-(2-chloro-6-fluorobenzyl)-N-(2,6-difluorobenzyl)-3,3-dimethyl-2-oxoindoline-6-carboxamide] | ≤ 1000 nM | 1000 to 10000 nM | ≤ 1000 nM | 1000 to 10000 nM | 1000 to 10000 nM

More lines, now with the values ahead:

Row | EC50 [1] | EC50 [2] | EC50 [3] | EC50 [4] | EC50 [5] | SMILES
6 | ≤ 1000 nM | ≤ 1000 nM | ≤ 1000 nM | 1000 to 10000 nM | 1000 to 10000 nM | CC1(C)C(=O)N(Cc2c(F)cccc2Cl)c2cc(C(=O)NCc3cc4ccc(F)cc4o3)ccc21 [Example 74, 1-(2-chloro-6-fluorobenzyl)-N-((6-fluorobenzofuran-2-yl)methyl)-3,3-dimethyl-2-oxoindoline-6-carboxamide]
7 | ≤ 1000 nM | 1000 to 10000 nM | 1000 to 10000 nM | > 10000 nM | > 10000 nM | Cc1ccc(CNC(=O)c2ccc3c(c2)N(Cc2c(C)cccc2F)C(=O)C3(C)C)o1 [Example 63, 1-(2-fluoro-6-methylbenzyl)-3,3-dimethyl-N-((5-methylfuran-2-yl)methyl)-2-oxoindoline-6-carboxamide]
8 | ≤ 1000 nM | ≤ 1000 nM | ≤ 1000 nM | 1000 to 10000 nM | 1000 to 10000 nM | CCn1nc(C)cc1CN1C(=O)C(C)(C)c2ccc(C(=O)NCc3cc4cc(F)ccc4o3)cc21 [Example 116, 1-((1-ethyl-3-methyl-1H-pyrazol-5-yl)methyl)-N-((5-fluorobenzofuran-2-yl)methyl)-3,3-dimethyl-2-oxoindoline-6-carboxamide]
9 | ≤ 1000 nM | 1000 to 10000 nM | 1000 to 10000 nM | > 10000 nM | > 10000 nM | CC1(C)C(=O)N(Cc2c(F)cccc2Cl)c2cc(C(=O)NCc3cccc(F)c3)ccc21 [Example 12, 1-(2-chloro-6-fluorobenzyl)-N-(3-fluorobenzyl)-3,3-dimethyl-2-oxoindoline-6-carboxamide]
10 | ≤ 1000 nM | ≤ 1000 nM | ≤ 1000 nM | 1000 to 10000 nM | 1000 to 10000 nM | CC1(C)C(=O)N(Cc2cccc(F)c2F)c2cc(C(=O)NCc3c(F)cc(F)cc3F)ccc21 [Example 33, 1-(2,3-difluorobenzyl)-3,3-dimethyl-2-oxo-N-(2,4,6-trifluorobenzyl)indoline-6-carboxamide]
